Assay results: article PMC6214487 (Journal of drug design and research, 2018)
Where two headings read alike, the source gives them in different places.

Columns and labels:
[1] = test system: HIV-1 isolates from subtypes A, B, and C; assay: Replication in PBMCs, summary over the three isolates tested; format: cell-based; settings: read-out: Median IC50
[2] = test system: PBMCs; assay: Toxicity to PBMCs, MTS assay; settings: for Therapeutic Index (CC50/IC50): calculated using the median IC50 across all three isolates
[3] = Toxicity to PBMCs, MTS assay; settings: human, primary peripheral blood mononuclear cells (PBMCs)
[4] = target: HIV-1 NL4-3 disulfide stabilized CA hexamer (HIV-1 NL4-3); assay: SPR
[5] = test system: HIV-1JR-FLEnv infected U87.CD4.CCR5 cells; assay: Q-PCR analysis of viral DNA; format: cell-based; settings: CX06 15 μM
[6] = test system: HIV-1 pseudovirus CA N74D; assay: organism not typed; format: cell-based; settings: for IC50: read-out: IC50, CA N74D virus
[7] = test system: HIV-1 pseudovirus CA K70A; assay: organism not typed; format: cell-based; settings: for IC50: read-out: IC50, CA K70A virus
[8] = test system: HIV-1 pseudovirus CA wild-type; assay: organism not typed; format: cell-based; settings: for IC50: read-out: IC50, Wild-type virus
[9] = test system: 293T cells; format: cell-based, human
[10] = test system: HIV-1 pseudovirus CA Q63A; assay: organism not typed; format: cell-based; settings: for IC50: read-out: IC50, CA Q63A virus
[11] = test system: HIV-1 pseudovirus CA N57A; assay: organism not typed; format: cell-based; settings: for IC50: read-out: IC50, CA N57A virus
[12] = target: HIV-1 CA (Human immunodeficiency virus type 1 group M subtype B, UniProt P12493); settings: capsid 30 μM, compound 50 μM, compared to DMSO
[13] = test system: VSV-pseudotyped HIV-1 virus; format: cell-based
[14] = test system: VSV-G pseudotyped HIV-1 in TZM-bl cells; format: cell-based
[15] = test system: AMLV Envpseudotyped HIV-1; format: cell-based; settings: single round infection assay
[16] = test system: HIV-1JR-FL Envpseudotyped viruses; assay: Viral production by p24 quantitation; format: cell-based; settings: 20 μM, relative to DMSO
[17] = test system: HIV-1 pseudovirus CA P90A; assay: organism not typed; format: cell-based; settings: for IC50: read-out: IC50, CA P90A virus
[18] = test system: U87.CD4. cells; format: cell-based, human
[19] = target: purified recombinant RT (Human immunodeficiency virus type 1 group M subtype B, UniProt P04585); assay: Colorimetric reverse transcriptase assay kit; settings: CX06 15 μM, PF-74 1.5 μM, TMC278 1 nM, relative to DMSO
[20] = test system: HIV-1JR-FL envelope pseudotyped virus; assay: Single-round infection assay, early-stage events; settings: compound present at infection of target cells, luciferase
[21] = test system: HIV-1 92RW025; assay: Replication of primary isolate in PBMCs; format: cell-based; settings: read-out: IC50 HIV-1 92RW025 Clade A; primary human PBMCs
[22] = test system: HIV-1 JR-CSF; assay: Replication of primary isolate in PBMCs; format: cell-based; settings: read-out: IC50 HIV-1 JR-CSF Clade B; primary human PBMCs
[23] = test system: HIV-1 93MW965; assay: Replication of primary isolate in PBMCs; format: cell-based; settings: read-out: IC50 HIV-1 93MW965 Clade C; primary human PBMCs
[24] = Human immunodeficiency virus 1, PBMC

Molecule: CN(C(=O)C(Cc1ccccc1)NC(=O)Cc1cnn(C(F)F)c1)c1ccccc1 (stereo not shown) [CX04, 2-(2-(1-(difluoromethyl)-1H-pyrazol-4-yl)acetamido)-N-methyl-N,3-diphenylpropanamide]
- IC50 [1, 24]: 17.1 ± 2.7 µM
- Therapeutic Index (CC50/IC50) [2]: >5.84
- CC50 [3]: > 100 µM

Molecule: NUP153 1407-1423 peptide (from UniProt P49790 1407-1423)
- Kd [4]: 202 µM

Molecule: CCn1ncc(CC(=O)NC(Cc2ccccc2)C(=O)N(C)c2ccccc2)c1C(F)F (stereo not shown) [CX06, 2-(2-(5-(difluoromethyl)-1-ethyl-1H-pyrazol-4-yl)acetamido)-N-methyl-N,3-diphenylpropanamide]
- 2-LTR circles ([5]; 24 h): significantly affected
- Early RT products (RU5) ([5]; 48 h): slightly diminished
- Integrated pro-virus (Alu-PCR) ([5]; 48 h): significantly affected
- Late RT products (U5Ψ) ([5]; 48 h): significantly affected
- Fold increase, CA N74D virus ([6]; IC50 relative to wild-type): 0.8
- IC50 [6]: 2.4 ± 0.7 µM
- Fold increase, CA K70A virus ([7]; IC50 relative to wild-type): 1.03
- IC50 [7]: 3.2 ± 0.3 µM
- Fold increase, Wild-type virus ([8]; IC50 relative to wild-type): 1
- IC50 [8]: 3.1 ± 0.5 µM
- Cytotoxicity [9]: not cytotoxic
- Fold increase, CA Q63A virus ([10]; IC50 relative to wild-type): 6.9
- IC50 [10]: 21.4 ± 1.4 µM
- Fold increase, CA N57A virus ([11]; IC50 relative to wild-type): 1.4
- IC50 [11]: 4.3 ± 0.5 µM
- IC50 [1, 24]: 5.9 ± 1 µM
- Effect on capsid assembly, turbidity at 350 nm [12]: reduced the multimerization of HIV-1 CA
- Time of addition at which compound is effective [13]: ≤ 6 hours post-infection
- Nuclear import of INsfGFP complexes [14]: efficiently inhibited the appearance of INsfGFP spots in the nucleus
- Inhibition of AMLV Env pseudotyped HIV-1 infection [15]: almost identical potency as when the HIV-1JR-FLEnv was used
- Therapeutic Index (CC50/IC50) [2]: >17.0
- CC50 [3]: > 100 µM
- Viral production, p24 content [16]: decreasing the amount of virus released from the cells
- Fold increase, CA P90A virus ([17]; IC50 relative to wild-type): 1
- IC50 [17]: 3.1 ± 0.5 µM
- Cytotoxicity [18]: not cytotoxic
- Effect on RT activity in vitro [19]: no effect on RT activity

Molecule: Cc1ccnc2c1NC(=O)c1cccnc1N2C1CC1 [Nevirapine]
- Nuclear import of INsfGFP complexes [14]: without effect

Molecule: CC(C)c1nc2c(n1CC(=O)NC(Cc1ccccc1)C(=O)N(C)c1ccccc1)CCCC2 (stereo not shown) [CX03, 2-(2-(2-isopropyl-4,5,6,7-tetrahydro-1H-benzo[d]imidazol-1-yl)acetamido)-N-methyl-N,3-diphenylpropanamide]
- IC50 [1, 24]: 5.9 ± 0.9 µM
- Therapeutic Index (CC50/IC50) [2]: >16.9
- CC50 [3]: > 100 µM

Molecule: Cc1[nH]c2ccccc2c1CC(=O)N[C@@H](Cc1ccccc1)C(=O)N(C)c1ccccc1 [PF-74, reference compound]
- Effect on early-stage events, infectivity of target cells [20]: dual-stage inhibition profile
- IC50 ([6]; single-round infection): 0.5 ± 0.1 µM
- IC50 ([7]; single-round infection): 0.25 ± 0.08 µM
- IC50 ([8]; single-round infection): 0.22 ± 0.05 µM
- IC50 ([10]; single-round infection): 0.4 ± 0.05 µM
- IC50 ([11]; single-round infection): 0.25 ± 0.04 µM
- IC50 [21]: 1.5 ± 0.9 µM
- IC50 ([1]; over the three isolates tested, PBMCs): 0.9 ± 0.5 µM
- IC50 [22]: 0.6 ± 0.2 µM
- Nuclear import of INsfGFP complexes [14]: efficiently inhibited the appearance of INsfGFP spots in the nucleus
- IC50 [23]: 0.6 ± 0.1 µM
- CC50 ([2]; MTS assay, PBMCs): 90.5 ± 5.9 µM
- IC50 ([17]; single-round infection): 0.21 ± 0.04 µM
- Effect on RT activity in vitro [19]: no effect on RT activity

Molecule: CN(C(=O)C(Cc1ccccc1)NC(=O)Cc1cnn(C)c1C(F)(F)F)c1ccccc1 (stereo not shown) [CX05, N-methyl-2-(2-(1-methyl-5-(trifluoromethyl)-1H-pyrazol-4-yl)acetamido)-N,3-diphenylpropanamide]
- IC50 [1, 24]: 18 ± 4.6 µM
- Therapeutic Index (CC50/IC50) [2]: >5.58
- CC50 [3]: > 100 µM
